We go through 11 substances from patent US20160320384A1, “METHODS FOR ASSAYING IMMUNOLOGICAL COMPETENCE” (YEDA RESEARCH AND DEVELOPMENT CO. LTD., priority 2013, published 2016).

For data set [1], the system named is serum IgG antibodies. In words: Serum IgG antibody binding to oligonucleotides on antigen microarray. Set-up: species or system human. The settings on record: for IgG reactivities compared to T17: individual subjects (FIGS. 5A-B); for IgG binding compared to G17: individual subjects (FIG. 4).
Description: (§1) In a follow-up study, sera samples obtained from 23 healthy subjects, 24 SSc patients, and 49 SLE patients were tested using an antigen microarray that included 58 single-stranded oligonucleotides. Overall, 60 SLE patients, 26 SSc patients, 18 PV patients, and 31 healthy subjects were tested.
(§2) In a follow-up study, 58 different oligonucleotides, as well as double and single stranded DNA, in various lengths (104 different preparations overall), were spotted on epoxy-activated glass substrates (ArrayIt SuperEpoxi microarray substrate slides, Sunnyvale, Calif.). […] The microarrays were then blocked for 1 hour at 37° with 1% bovine serum albumin. Test serum samples in 1% Bovine Serum Albumin (BSA) blocking buffer (1:10 dilution) were incubated under a coverslip for 1 hour at 37°. The arrays were then washed and incubated for 1 hour at 37° with a 1:500 dilution of two detection antibodies, mixed together: a goat anti-human IgG Cy3-conjugated antibody, and a goat anti-human IgM Cy5-conjugated antibody (both purchased from Jackson ImmunoResearch Laboratories Inc., West Grove, Pa.). Image acquisition was performed by laser (Agilent Technologies, Santa Clara, Calif.) and the results were analyzed using Quantarray software (Packard BioChip Technologies, Billerica, Mass.). The quantitative range of signal intensity of binding to each antigen spot was 0-65,000; this range of detection made it possible to obtain reliable data at a 1:10 dilution of test serum samples.
(§3) Alternatively, oligonucleotides and double and single stranded DNA in various chain lengths were spotted on epoxyhexyltriethoxysilane (EHTES) activated slides. The microarrays were then blocked for 1 hour at room temperature with 1% casein. Test serum samples in 1% casein blocking buffer (1:20 dilution) were incubated under a coverslip for 1 hour at 37°. The arrays were then washed and incubated for 1 hour at 37° with a 1:500 dilution of two detection antibodies, mixed together: a goat anti-human IgG Cy3-conjugated antibody, and a goat anti-human IgM AF647-conjugated antibody (both purchased from Jackson ImmunoResearch Laboratories Inc., West Grove, Pa.). Image acquisition was performed by laser at two wavelengths 530 nm and 630 nm (Agilent Technologies, Santa Clara, Calif.) and the results were analyzed using Genepix Pro 7.0 software with default settings. The quantitative range of signal intensity of binding to each antigen spot was 0-65,000; this range of detection made it possible to obtain reliable data at a 1:20 dilution of test samples.
(§4) Each spot's intensity is represented by its pixels' mean after subtraction of its local background median, followed by Log 2 transform. Negative spots (following background subtraction) are imputed with background-like intensity. The foreground and background intensities of multiple spots of each antigen were averaged, and the difference between the foreground and the background was calculated.
For data set [2], the system named is serum IgM antibodies. In words: Serum IgM antibody binding to oligonucleotides on antigen microarray. The arrangement: species or system human. The settings on record: for IgM reactivities compared to T17: individual subjects (FIGS. 5A-B); for IgM binding compared to G17: individual subjects (FIG. 4).
Description: as §1, §2, §3, §4
Data set [3] relates to poly-G autoantibody. Put plainly: Poly-G autoantibody levels in kidney transplanted patients at baseline and 24 weeks after transplantation and immunosuppression (antigen microarray). The format is in vivo, human. The arrangement: reduction in G14 IgM autoantibody intensity / reduction in G14 IgG autoantibody intensity / reduction in G40 IgM autoantibody intensity: concentration or dose not given beside the values.

Setting [4] is: both studies combined: 60 SLE, 26 SSc, 18 PV patients, 31 healthy subjects.
[5] abbreviates: healthy subjects, SSc and PV patients (FIG. 1).
[6] abbreviates: median intensity, 24 weeks after Tx vs baseline.

Turning to “A20: 20-mer adenine homo-nucleotide (AAAAAAAAAAAAAAAAAAAA; listed as DNA, chemistry not fully specified)”, the IgG reactivities entry in data set [1] (setting [4]) is “relatively low reactivities”; in data set [1] (setting [5]), “very low or no reactivities”.

“CGCGCGCGCGCGCGCGCGCG (listed as DNA, chemistry not given here) [(CG)10]”: the IgG reactivities result in data set [1] (group of SLE patients, mainly positive for anti-dsDNA (FIG. 6)) is “high IgG reactivities”. Moreover, the IgM reactivities entry in data set [2] (healthy subjects, SSc and SLE patients (FIG. 6)) was “high in all but one of the healthy subjects, in all of the SSc patients and in most of the SLE patients”.

On to “G1T16: poly-T chain with a single G at the 5′ end (DNA GTTTTTTTTTTTTTTTT; listed as DNA, chemistry not fully specified)”, for which, in data set [1], the “IgG reactivities compared to T17” value is “increased in almost all the subjects”. Also, in data set [2], the “IgM reactivities compared to T17” value was “increased in almost all the subjects”.

Regarding “G2T16: modified T17 oligonucleotide (DNA GGTTTTTTTTTTTTTTTT; listed as DNA, chemistry not fully specified)”, in data set [1], the “IgG reactivities compared to T17” value is “also increased compared to T17”. Further, in data set [2], the “IgM reactivities compared to T17” value is reported as “also increased compared to T17”.

For the substance “G16T1: G16 with a single T added at the 3′ end (GGGGGGGGGGGGGGGGT; listed as DNA, chemistry not fully specified)”, the “IgG binding compared to G17” value in data set [1] was “considerably less than the binding to G17”. The “IgM binding compared to G17” value in data set [2] is “considerably less than the binding to G17”.

Regarding “G17: poly-guanine oligonucleotide antigen, 17 guanines (GGGGGGGGGGGGGGGGG; listed as DNA, chemistry not fully specified)”, the “mean IgG reactivities as a function of chain length” value in data set [1] (healthy, SSc, SLE dsDNA-negative and -positive groups (FIG. 3)) is “fell significantly”.

Regarding “T16G1: poly-T chain with a single G at the 3′ end (DNA TTTTTTTTTTTTTTTTG; listed as DNA, chemistry not fully specified)”, the “IgG reactivities compared to T17” value in data set [1] is “increased in almost all the subjects”. Also, the “IgM reactivities compared to T17” value in data set [2] is “increased in almost all the subjects”.

As to “T16G2: modified T17 oligonucleotide (DNA TTTTTTTTTTTTTTTTGG; listed as DNA, chemistry not fully specified)”, the “IgG reactivities compared to T17” value in data set [1] is “also increased compared to T17”. Also, the “IgM reactivities compared to T17” value in data set [2] is reported as “also increased compared to T17”.

On to “T20: 20-mer thymine homo-nucleotide (DNA TTTTTTTTTTTTTTTTTTTT)”, for which the IgG reactivities entry was “relatively low reactivities” in data set [1] (setting [4]) and “very low or no reactivities” in data set [1] (setting [5]).

For “TGGGGGGGGGGGGGGGG (listed as DNA, chemistry not given here) [T1G16]”, the “IgG binding compared to G17” value in data set [1] is reported as “essentially equal to the binding to the G17”. Also, in data set [2], the “IgM binding compared to G17” value is recorded as “essentially equal to the binding to the G17”.

Turning to belatacept, the “patients in whom the reduction in poly-G autoantibody intensity was observed” value in data set [3] (6 months post immunosuppression administration, 6 patients per group) is on record as “observed in all belatacept patients”. In addition, the “reduction in autoantibodies median intensity, combined poly-G reactivity” value in data set [3] (FIGS. 12A-B, 24 weeks after Tx vs baseline, belatacept vs CsA) is “greater reduction”. The “Antibody level 24 weeks after transplantation and drug administration compared to baseline (%, median intensity): IgG levels against G14 (SEQ ID NO: 41)” value in data set [3] (kidney transplanted patients, serum, 24 weeks after Tx vs baseline, IgG, G14) came to 53%. The “Antibody level 24 weeks after transplantation and drug administration compared to baseline (%, median intensity): IgG levels against G17 (SEQ ID NO: 36)” value in data set [3] (kidney transplanted patients, serum, 24 weeks after Tx vs baseline, IgG, G17) was determined as 70%. Further, in data set [3] (kidney transplanted patients, serum, 24 weeks after Tx vs baseline, IgG, G20), the “Antibody level 24 weeks after transplantation and drug administration compared to baseline (%, median intensity): IgG levels against G20 (SEQ ID NO: 43)” value amounted to 58%. In addition, the “Antibody level 24 weeks after transplantation and drug administration compared to baseline (%, median intensity): IgG levels against G30 (SEQ ID NO: 65)” value in data set [3] (kidney transplanted patients, serum, 24 weeks after Tx vs baseline, IgG, G30) is 67%. In data set [3] (kidney transplanted patients, serum, 24 weeks after Tx vs baseline, IgG, G40), the “Antibody level 24 weeks after transplantation and drug administration compared to baseline (%, median intensity): IgG levels against G40 (SEQ ID NO: 66)” value is 81%. The “Antibody level 24 weeks after transplantation and drug administration compared to baseline (%, median intensity): IgM levels against G14 (SEQ ID NO: 41)” value in data set [3] (kidney transplanted patients, serum, 24 weeks after Tx vs baseline, IgM, G14) was found to be 45%. In data set [3] (kidney transplanted patients, serum, 24 weeks after Tx vs baseline, IgM, G17), the “Antibody level 24 weeks after transplantation and drug administration compared to baseline (%, median intensity): IgM levels against G17 (SEQ ID NO: 36)” value is 63%. In addition, in data set [3] (kidney transplanted patients, serum, 24 weeks after Tx vs baseline, IgM, G20), the “Antibody level 24 weeks after transplantation and drug administration compared to baseline (%, median intensity): IgM levels against G20 (SEQ ID NO: 43)” value is on record as 63%. In addition, the “Antibody level 24 weeks after transplantation and drug administration compared to baseline (%, median intensity): IgM levels against G30 (SEQ ID NO: 65)” value in data set [3] (kidney transplanted patients, serum, 24 weeks after Tx vs baseline, IgM, G30) is listed as 59%. In addition, the “Antibody level 24 weeks after transplantation and drug administration compared to baseline (%, median intensity): IgM levels against G40 (SEQ ID NO: 66)” value in data set [3] (kidney transplanted patients, serum, 24 weeks after Tx vs baseline, IgM, G40) is 72%. Besides, in data set [3] (setting [6]), the “reduction in G14 IgG autoantibody intensity” value was determined as 47%, the “reduction in G14 IgM autoantibody intensity” value came out at 55%, the “reduction in G17 IgG autoantibody intensity” value is recorded as 30% and the “reduction in G17 IgM autoantibody intensity (FIG. 8A)” value amounted to 37%. Moreover, in data set [3] (setting [6]), the “reduction in G20 IgG autoantibody intensity” value is reported as 42%, the “reduction in G20 IgM autoantibody intensity” value was determined as 37%, the “reduction in G30 IgG autoantibody intensity” value came out at 33% and the “reduction in G30 IgM autoantibody intensity” value turned out to be 41%. Besides, in data set [3] (setting [6]), the “reduction in G40 IgG autoantibody intensity” value turned out to be 19% and the “reduction in G40 IgM autoantibody intensity” value is reported as 28%.
